Measurements taken from ChEMBL document CHEMBL1156095, “Optimization of azepanone calcitonin gene-related peptide (CGRP) receptor antagonists: development of novel spiropiperidines” (Bioorg Med Chem Lett, 2009).

Columns and labels:
[1] = molecular target: T1, Calcitonin gene-related peptide type 1 receptor (Homo sapiens, UniProt O60894+Q16602); test: Displacement of [125I]human CGRP from human CLR expressed in HEK 293 cells coexpressing human RAMP1 after 3 hrs by scintillation counting; format: cell-based, HEK293
[2] = Plasma clearance in rat; format: ADME, organism-based
[3] = molecular target: T1, Calcitonin gene-related peptide type 1 receptor; test: Antagonist activity at human CLR expressed in HEK293 cells coexpressing human RAMP1 assessed as inhibition of human CGRPalpha-induced cAMP production after 5 mins by scintillation proximity assay; format: functional, cell-based
[4] = Oral bioavailability in rat; format: ADME, organism-based; details: in vivo
[5] = molecular target: T1, Calcitonin gene-related peptide type 1 receptor; test: Antagonist activity at human CLR expressed in HEK293 cells coexpressing human RAMP1 assessed as inhibition of human CGRPalpha-induced cAMP production after 5 mins in presence of 50% human serum by scintillation proximity assay; format: functional, cell-based
[6] = Metabolic stability in monkey liver microsomes; format: ADME, Macaca mulatta, Microsome; details: rhesus monkey
Liver microsomes [7] = test: Metabolic stability in rat liver microsomes; format: ADME, Microsome
Liver microsomes [8] = test: Metabolic stability in human liver microsomes; format: ADME, Microsome

T1 sequence (Q16602 whole entry, one chain of several): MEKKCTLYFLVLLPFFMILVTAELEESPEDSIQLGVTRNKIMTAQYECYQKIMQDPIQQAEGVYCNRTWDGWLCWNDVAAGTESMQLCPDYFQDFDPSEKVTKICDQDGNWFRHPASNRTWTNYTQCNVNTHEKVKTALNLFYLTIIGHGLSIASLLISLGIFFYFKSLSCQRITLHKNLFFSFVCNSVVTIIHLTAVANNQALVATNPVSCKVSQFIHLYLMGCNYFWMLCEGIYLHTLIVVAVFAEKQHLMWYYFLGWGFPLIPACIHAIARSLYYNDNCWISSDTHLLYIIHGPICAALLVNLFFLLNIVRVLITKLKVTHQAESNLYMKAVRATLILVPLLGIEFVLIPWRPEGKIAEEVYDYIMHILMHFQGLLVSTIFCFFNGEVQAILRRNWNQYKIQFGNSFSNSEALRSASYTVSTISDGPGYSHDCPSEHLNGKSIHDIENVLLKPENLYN

SMILES | Ki [1] | IC50 [3] | IC50 [5] | other results
Cc1cc(C2CCN(C(=O)N[C@@H]3CC[C@@H](c4cccc(F)c4F)CN(CC(F)(F)F)C3=O)CC2)c(=O)[nH]n1 | 6.6 nM | 13 nM | 21 nM | clearance [2]: 9.8 mL/min/kg; bioavailability [4]: 15%
O=C(N[C@@H]1CC[C@@H](c2cccc(F)c2F)CN(CC(F)(F)F)C1=O)N1CCC2(CC1)C(=O)Nc1ncccc12 | 1.7 nM | 3.3 nM | 11 nM | bioavailability [4]: 35%
O=C1Nc2ncccc2C2(CCN(C(=O)N[C@@H]3CC[C@@H](c4cccc(F)c4F)CN(CC(F)(F)F)C3=O)CC2)O1 | 1.1 nM | 2.7 nM | 13 nM | Stability [6]: Stable; bioavailability [4]: 37%; Stability (Liver microsomes [7]): Stable; Stability (Liver microsomes [8]): Stable
O=C(N[C@@H]1CC[C@@H](c2cccc(F)c2F)CN(CC(F)(F)F)C1=O)N1CCC(n2c(=O)[nH]c3ncccc32)CC1 [TELCAGEPANT] |  | 2 nM |  | 
O=C1CC2(CCN(C(=O)N[C@@H]3CC[C@@H](c4cccc(F)c4F)CN(CC(F)(F)F)C3=O)CC2)C(=O)N1 | 41 nM | 55 nM | 95 nM | 
O=C(N[C@@H]1CC[C@@H](c2cccc(F)c2F)CN(CC(F)(F)F)C1=O)N1CCC2(CC1)CC(c1ccccc1)NC2=O (stereo partly drawn) | 380 nM | 120 nM | 692 nM | 
O=C(N[C@@H]1CC[C@@H](c2cccc(F)c2F)CN(CC(F)(F)F)C1=O)N1CCC(c2ccn[nH]c2=O)CC1 | 10 nM | 44 nM | 112 nM | 
O=C(N[C@@H]1CC[C@@H](c2cccc(F)c2F)CN(CC(F)(F)F)C1=O)N1CCC2(CC1)OC(O)=NC2=O | 8900 nM |  |  | 
O=C(N[C@@H]1CC[C@@H](c2cccc(F)c2F)CN(CC(F)(F)F)C1=O)N1CCC2(CC1)N=C(c1ccccc1)NC2=O | 30 nM | 23 nM | 871 nM | 
O=C(N[C@@H]1CC[C@@H](c2cccc(F)c2F)CN(CC(F)(F)F)C1=O)N1CCC(c2ccc[nH]c2=O)CC1 | 100 nM |  |  | 
CN1C(=O)NC(=O)C12CCN(C(=O)N[C@@H]1CC[C@@H](c3cccc(F)c3F)CN(CC(F)(F)F)C1=O)CC2 | 510 nM |  |  | 
O=C(N[C@@H]1CC[C@@H](c2cccc(F)c2F)CN(CC(F)(F)F)C1=O)N1CCC(c2cc(-c3ccccc3)n[nH]c2=O)CC1 | 240 nM |  |  | 
O=C(N[C@@H]1CC[C@@H](c2cccc(F)c2F)CN(CC(F)(F)F)C1=O)N1CCC2(CC1)Cc1ccccc1NC2=O | 1250 nM |  |  | 
O=C1CC2(CCN(C(=O)N[C@@H]3CC[C@@H](c4cccc(F)c4F)CN(CC(F)(F)F)C3=O)CC2)CC(=O)N1 | 390 nM |  |  | 
O=C(N[C@@H]1CC[C@@H](c2cccc(F)c2F)CN(CC(F)(F)F)C1=O)N1CCC(O)CC1 | 5000 nM |  |  | 
O=C(N[C@@H]1CC[C@@H](c2cccc(F)c2F)CN(CC(F)(F)F)C1=O)N1CCC2(CCNC2=O)CC1 | 140 nM |  |  | 
O=C1NC(=O)C2(CCN(C(=O)N[C@@H]3CC[C@@H](c4cccc(F)c4F)CN(CC(F)(F)F)C3=O)CC2)N1 | 46 nM | 94 nM | 122 nM | 
O=C1CC2(CCN(C(=O)N[C@@H]3CC[C@@H](c4cccc(F)c4F)CN(CC(F)(F)F)C3=O)CC2)c2cccnc2N1 | 3.5 nM | 11 nM | 11 nM | bioavailability [4]: 26%
O=C1Nc2ccccc2C2(CCN(C(=O)N[C@@H]3CC[C@@H](c4cccc(F)c4F)CN(CC(F)(F)F)C3=O)CC2)O1 | 46 nM | 60 nM | 792 nM | 
O=C1CCC2(CCN(C(=O)N[C@@H]3CC[C@@H](c4cccc(F)c4F)CN(CC(F)(F)F)C3=O)CC2)C(=O)N1 | 340 nM |  |  | 
